The text below walks through data of patent US20190203253A1, “METHODS OF IDENTIFYING AND TREATING CANCER PATIENTS WITH AN EPHB6 DEFICIENCY” (University of Saskatchewan, priority 2016, published 2019).

One experiment has as its system prostate cancer. To be noted: reference [26]; cited from earlier work.
The test system of a further experiment is MDA-pc3 and MDA-B6 cells. The experiment in a line: Cell death assays (propidium iodide and 7-AAD staining). It is filed as cell-based, human. To be noted: MDA-pc3 vs MDA-B6, 25 nM, 72 h (FIGS. 5A, 5B). On the procedure:
FIG. 5. Inhibition of SRC induces cell death more efficiently in EPHB6-deficient cells. A. MDA-pc3, and MDA-B6 cells were cultured in glass-bottom plates in the presence of 25 nM KX2-391 or DMSO for 72 h and stained with 2.7 μg/mL propidium iodide (PI) in phenol red-free medium. Stained cells were imaged at 200× magnification using Zeiss LSM 700 confocal microscope and PI-stained cells were counted in at least 10 randomly captured frames. Counts of PI-positive cells were normalized on the total cell numbers in matching frames. […] B. MDA-pc3 and MDA-B6 cells were cultured in 6-well plates in the presence of 25 nM KX2-391 or a matching volume of DMSO for 72 h. Cells were collected and stained for 7-AAD for 15 minutes at room temperature. Cells were analyzed by flow cytometry and the FlowJo software. […] All experiments were performed at least three times. Scale bar, 100 μm. *, P<0.05, Student's t-test.
For propidium iodide (PI) staining, MDA-MB-231 and BT-20 cells were incubated in glass-bottom plates (MatTek, Ashland, Mass., USA) for 72 h and 96 h, respectively, with KX2-391 and matching volumes of DMSO. […] The amount of PI-stained cells was analyzed by microscopy using a Zeiss Observer Z1 at 200× magnification. […] PI-stained cells were counted in at least 10 randomly captured frames, normalized on the total number of cells in matching frames and compared between DMSO controls and treated cells. […]

In experiment [1] the test system is MDA-pc3 and MDA-B6 TNBC tumors. The experiment in a line: Tumor xenograft study, tumor growth. To be noted: 5 mg/kg orally twice a day, MDA-pc3 vs MDA-B6 xenografts (FIG. 7A). It is filed as in vivo, NOD-SCID mice. On the procedure:
(§1) FIG. 7. Analysis of the SL interaction between EPHB6 and SRC in TNBC cells and murine xenografts. A. MDA-pc3 and MDA-B6 cells were injected into the mammary fat pad region of 4-6 weeks old NOD-SCID mice (1×10^6 cells per mouse). Mice with detectable tumors were treated twice per day with 5 mg/kg KX2-391 in DMSO/water solvent or solvent alone by oral feeding (at least 6 animals per each experimental condition). Tumor size was measured every 3 days and tumor volume was calculated with the equation: A/2*B^2, where A was long and B was short diameter of the tumor. The reduction in tumor growth in KX2-391-treated mice is presented as a percentage relative to matching solvent controls. The graph summarizes two independent experiments. […] Four representative fields (at 3, 6, 9, and 12 o'clock) per each stained tumor section (one for each extracted tumor) were imaged at 100× magnification and the blood vessel density per each field was analyzed with the Image-Pro Premier software. […]
Breeder pairs of NOD SCID gamma mice were purchased from The Jackson Laboratory and a colony was established at the Laboratory Animal Services Unit, University of Saskatchewan. […] Digital caliper measurements were taken every 3 days and tumor volume was calculated by the formula A/2*B^2 (where A and B were the long and short diameters of the tumor respectively). […]

Experiment [2] concerns CD34-stained blood vessels in MDA-B6 and MDA-pc3 tumors. The experiment in a line: Anti-CD34 immunohistochemistry of xenograft tumors (blood vessel density). It is filed as in vivo, NOD-SCID mice. Conditions: KX2-391-treated MDA-B6 and MDA-pc3 tumors (FIG. 7B). On the procedure:
as §1, with “experiments. Day 0 indicates the beginning of treatment with KX2-391 or matching solvent control.” for “experiments.”
For the immunohistochemical staining, tumors were dissected and fixed in 10% neutral- buffered formalin for 24-48 h. […] In each stained tumor section, 12, 3, 6 and 9 o'clock fields were imaged at 100× magnification and the density of stained blood vessels per field was quantified using the Image-Pro Premier software.

Entries after “also recorded” stand apart in the source; their conditions may differ.

`O=C(Cc1ccc(-c2ccc(OCCN3CCOCC3)cc2)cn1)NCc1ccccc1` [KX2-391]: the “clinical effect in phase II trials for prostate cancer” value in the experiment on prostate cancer is on record as “relatively modest effect”. The “induction of cell death (Propidium Iodide or 7-AAD staining)” value with MDA-pc3 and MDA-B6 cells is “more efficient in inducing cell death, when the EPHB6 receptor is not expressed”. Besides, the “suppression of tumor growth, EPHB6-deficient vs EPHB6-expressing tumors” value in experiment [1] was “more efficiently suppresses growth of EPHB6-deficient TNBC tumors; also recorded: significantly more effective in suppressing EPHB6-deficient TNBC tumors”. The “neovascularization (CD34 staining) of treated EPHB6-positive vs EPHB6-negative tumors” value in experiment [2] is “has not shown any differences in neovascularization”.
